US20090088411A1, “No-donating corticosteroid with improved pharmacokinetic, anti-inflammatory and vasodilatory properties” (Topigen Pharmaceuticals Inc., priority 2007, published 2009)

How the values were obtained:
[1] = parameters: species or system humans; conditions: human, in vivo
From the text: (§1) A clinical study was undertaken in humans to test certain aspects of a preferred NO-donating budesonide derivative, TPI-1020, as compared to the corticosteroid, budesonide which was not modified with a NO-donating moiety. Specifically, the objectives of this study were to determine the safety, pharmacodynamic and pharmacokinetic activity of multiple doses of inhaled NO-donating budesonide derivatives compared to that of equimolar doses of inhaled budesonide in subjects with mild asthma who smoke. We chose patients with asthma who smoke since these patients had reported to have not only an increase in eNO but also an increase in neutrophils within their sputum (as described in COPD). While assessing the safety of these compounds in such patients we could thus explore the effects of the same in patients with increased sputum neutrophils.
(§2) Those subjects who completed the 14-day run-in period were assigned to receive either an inhaled version of a compound of the present invention (in this case, budesonide 21-(4′-nitrooxymethyl)benzoate, designated hereafter as “TPI-1020”) or budesonide over a 21-day period. The doses administered were based on equimolar amounts of budesonide and were as follows: budesonide 400 μg bid for 14 days then 800 μg bid for 7 days; TPI-1020: 600 μg bid for 14 days then 1200 μg bid for 7 days. Study treatments were delivered in lactose-based blends using the capsule-based Aeroliser dry powder inhaler. Budesonide capsules (Miflonide®, Novartis Pharmaceuticals) delivered 383 μg as compared to 423 μg of budesonide for TPI-1020 (equivalent to 9.5% more budesonide delivered to the body in the TPI-1020 group). However, the fine particle dose of budesonide was 104 μg for the budesonide capsules and only 78 μg for the TPI-1020 capsules (equivalent to 25% less budesonide delivered to the lung in the TPI-1020 group). No other asthma medication except rescue salbutamol was permitted during the study.
The total number of adverse events reported by patients receiving budesonide and TPI-1020 is graphically depicted in FIG. 1. More specifically, FIG. 1 depicts the total number of either treatment-related or physician-determined adverse events for each drug during the 21 day therapeutic period.

[2] = Supine and standing blood pressure (vital signs), clinical study; assay type: in vivo, humans; conditions: after 22 days; p=0.015 between groups
Procedure: as §2

FEV1 spirometry = assay type: in vivo, humans; conditions: mean (SD)
Procedure: (§3) Although this study was only powered for neutrophils, the following parameters were also evaluated: sputum total cell and differential cell counts, using known methods, on days 0, 15 and day 22; pre-dose FEV1 measurements on days 0, 1, 14, 15 and 22; peak flow measurements throughout the study (miniwright meter); use of daily rescue medication (salbutamol) throughout the study; the response to methacholine challenge test; and the eNO levels (chemiluminescence after reaction with ozone) on days 0, 15 and 22 and plasma CRP levels on days 0, 15 and 22.
as §2

[3] = Peak flow measurements (PEF, miniwright meter); assay type: in vivo, humans; conditions: mean (SD)
Procedure: as §3, §2

sputum neutrophils = assay: Sputum differential cell count: neutrophils; assay type: in vivo, humans; conditions: for median sputum neutrophils: all patients
From the text: as §1, §3, §2
The sample size was chosen to provide information about the primary study objective (safety) and with the power to detect a 20% difference in the decrease in sputum neutrophils with TPI-1020, versus that occurring with budesonide. There are no published studies in mild smokers with asthma that have described the variability in sputum neutrophils. However, based on the COPD publication by Gamble et al., almost all patients with COPD have increased sputum neutrophils (>20%). We calculated that if 13 subjects per group completed the study, a difference of 20% in neutrophils (%) between groups could be detected with a power of 80%.

sputum eosinophils = assay: Sputum differential cell count: eosinophils; assay type: in vivo, humans; conditions: mean (SD)
Procedure: as §3, §2

[4] = Use of daily rescue medication (salbutamol); assay type: in vivo, humans; conditions: mean (SD)
Procedure: as §3, §2

[5] = Methacholine challenge test (PC20); assay type: in vivo, humans; conditions: mean (SD)
Procedure: as §3, §2

[6] = Asthma control scoring system questionnaire (ACSS); assay type: in vivo, humans; conditions: mean (SD)
Procedure: as §2

[7] = test system: exhaled nitric oxide (eNO); assay: Exhaled NO levels (chemiluminescence); assay type: in vivo, humans; conditions: for eNO (ppb): mean (SD)
Procedure: as §3, §2

blood eosinophils = assay: Blood eosinophils; assay type: in vivo, humans; conditions: mean (SD)
Procedure: as §2

blood lymphocytes = assay: Blood lymphocytes; assay type: in vivo, humans; conditions: mean (SD)
Procedure: as §2

C-reactive protein (CRP) = assay: Plasma CRP levels; assay type: in vivo, humans; conditions: for CRP (mg/L): mean (SD)
Procedure: as §3, §2

[8] = test system: HPA (hypothalamic-pituitary-adrenal) axis; assay: Morning plasma cortisol level
From the text: (§4) This undesirable HPA axis suppression is typically measured by a reduction in urinary cortisol excretion.
(§5) Safety parameters consisted of adverse events and serious adverse events, vital signs, asthma symptoms, laboratory determinations of CBC, urinalysis, regular blood biochemistry, plasma C-reactive protein (CRP), plasma and urinary free cortisol levels, spirometry and electrocardiograms (ECGs).

[9] = test system: HPA (hypothalamic-pituitary-adrenal) axis; assay: 24-hour urinary free cortisol; conditions: vs baseline
From the text: as §4, §5

Structure (SMILES): CCCC1O[C@@H]2C[C@H]3[C@@H]4CCC5=CC(=O)C=C[C@]5(C)[C@H]4[C@@H](O)C[C@]3(C)[C@]2(C(=O)CO)O1 (some centres unmarked) [budesonide, reference compound]
- severe adverse events [1]: one
- drug-related adverse events ([1]; 21 days): 9
- number of subjects that reported adverse events ([1]; 21 days): 7
- total treatment-emergent adverse events ([1]; 21 days): 39
- change in standing pulse pressure [2]: +4.85 mmHg
- FEV1 (ITT, L) (FEV1 spirometry; Baseline): 3.3 (0.8) L
- FEV1 (PD, L) (FEV1 spirometry; Baseline): 3.2 (0.7) L
- FEV1 (PD, L) (FEV1 spirometry; Day 1): 3.1 (0.6) L
- FEV1 (PD, L) (FEV1 spirometry; Day 14): 3.3 (0.7) L
- FEV1 (PD, L) (FEV1 spirometry; Day 15): 3.3 (0.7) L
- FEV1 (ITT, L) (FEV1 spirometry; Day 22): 3.3 (0.8) L
- FEV1 (PD, L) (FEV1 spirometry; Day 22): 3.3 (0.7) L
- PEF (AM, L/min) ([3]; Baseline): 405.5 (91) L/min
- PEF (AM, L/min) ([3]; Day 22): 423.4 (89.5) L/min
- mean sputum neutrophils (sputum neutrophils; after 22 days, post hoc, patients with baseline sputum neutrophils <20% (normal)): 3.95%
- mean sputum neutrophils (sputum neutrophils; after 22 days, post hoc, patients with baseline sputum neutrophils >20%): 51.9%
- mean sputum neutrophils (sputum neutrophils; baseline, post hoc, patients with baseline sputum neutrophils <20% (normal)): 4.25%
- mean sputum neutrophils (sputum neutrophils; baseline, post hoc, patients with baseline sputum neutrophils >20%): 55.1%
- median sputum neutrophils (sputum neutrophils; day 0 prior to therapy): 39.6%
- increase in median sputum neutrophils (sputum neutrophils; day 0 to day 22, all patients): 3.7%
- median sputum neutrophils (sputum neutrophils; day 22 (end of therapy)): 41.1%
- decrease in mean sputum neutrophils (sputum neutrophils; over 22 days, post hoc, patients with baseline sputum neutrophils >20%): 5.8%
- Sputum eos (%) (sputum eosinophils; Baseline): 2.4 (3.3) %
- Sputum eos (%) (sputum eosinophils; Day 22): 1.0 (1.0) %
- Doses of Rescue Rx ([4]; Baseline): 17 (15)
- Rescue free days (%) ([4]; Baseline): 40.9 (41) %
- Doses of Rescue Rx ([4]; Day 22): 3.5 (4)
- Rescue free days (%) ([4]; Day 22): 68.4 (32) %
- PC20 (mg/ml) ([5]; Baseline): 1.4 (1.3) mg/ml
- PC20 (mg/ml) ([5]; Day 22): 2.0 (1.6) mg/ml
- ACSS ([6]; Baseline): 73.1 (14)
- ACSS ([6]; Day 22): 82.4 (8.4)
- eNO (ppb) ([7]; Baseline): 19 (17.6) ppb
- eNO (ppb) ([7]; Day 22): 9.8 (7.6) ppb
- decrease in eNO ([7]; equimolar doses, baseline to day 22): 9.2 ppb
- Blood eos (%) (blood eosinophils; Baseline): 2.3 (2.3) %
- Blood eos (%) (blood eosinophils; Day 22): 2.1 (1.6) %
- Blood lymphocytes (%) (blood lymphocytes; Baseline): 14.9 (13) %
- Blood lymphocytes (%) (blood lymphocytes; Day 22): 22.5 (15.8) %
- patients in whom CRP decreased (C-reactive protein (CRP); 22 days of therapy compared to baseline): 33.2%
- CRP (mg/L) (C-reactive protein (CRP); Baseline): 2.7 (4.3) mg/L
- CRP (mg/L) (C-reactive protein (CRP); Day 22): 2.5 (1.4) mg/L
- increase in plasma CRP (C-reactive protein (CRP); day 15 versus baseline, p=0.03 between groups): 0.7 mg/L
- morning plasma cortisol level ([8]; baseline): 13.1 µg/dL
- morning plasma cortisol level ([8]; day 15): 10.9 µg/dL
- morning plasma cortisol level ([8]; day 22): 11.4 µg/dL
- effect on 24-hour urinary free cortisol [9]: significantly decreased
